Measured values taken from patent publication US20240166627A1, “Terpyridinedione compound or salt thereof, and preparation method and application thereof” (SHENZHEN SALUBRIS PHARMACEUTICALS CO., LTD., priority 2021, published 2024).
In brackets after ≈: the same amount, converted by molar mass.

Columns and labels:
[1] = test system: production of TNFα in U937; test: Releasing TNFα from U937 induced by LPS; type: cell-based; settings: Homo sapiens, U-937; PMA-differentiated U937, LPS 100 ng/ml, 4 h; read-out: IC50 value that the compound inhibits the production of TNFα
Outline: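 U937 cells differentiated with PMA (20 ng/ml, 48 h) were pretreated with compound (0.1% DMSO final) for 30 min at 37 °C, then stimulated with LPS (100 ng/ml) for 4 h. Supernatant TNFα was quantified by ELISA against a kit standard curve, and IC50 came from nonlinear fitting.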

[2] = Determination of solubility; type: physicochemical; settings: aqueous buffer, thermodynamic from solid, 37° C. 1 h
Protocol: About 0.5 mg of a to-be-tested sample in a centrifuge tube is weighted, an appropriate amount of DMSO is added to completely dissolve the sample, and then methanol is added to make up to 1 ml.
(If there are more pH values to be investigated, the preparation method may be deduced by analogy).
3. The prepared control solution and test solution are simultaneously put into a 37° C. water bath and heated for 1 h, after 1 h, the solutions are taken out and cooled to room temperature, and then the solutions are filtered with a 0.22 μm filter membrane for sample injection.
4. The concentration of the sample in the test solution is calculated according to C=(A*(ms/vs))/AS, and experiment results are shown in Table 2.
Note: ms, vs and AS are the weight, volume and peak area of the sample in the control solution, respectively.
A is the peak area of the test solution.

[3] = target: p38α (Homo sapiens, UniProt Q16539); test: p38α kinase screening experiment (ADP-Glo); type: biochemical
Chain of p38α (Q16539 whole entry): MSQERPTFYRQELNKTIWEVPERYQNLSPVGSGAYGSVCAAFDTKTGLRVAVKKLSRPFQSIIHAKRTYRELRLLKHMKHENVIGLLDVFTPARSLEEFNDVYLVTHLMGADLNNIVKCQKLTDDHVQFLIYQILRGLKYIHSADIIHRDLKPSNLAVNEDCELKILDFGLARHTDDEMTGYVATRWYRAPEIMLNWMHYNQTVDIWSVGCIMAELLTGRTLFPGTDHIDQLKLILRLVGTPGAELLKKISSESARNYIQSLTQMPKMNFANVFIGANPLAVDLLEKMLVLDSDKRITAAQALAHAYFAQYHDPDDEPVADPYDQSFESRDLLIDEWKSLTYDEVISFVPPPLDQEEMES
Protocol: (§1) A certain amount of the compound is weighed, prepared into a 10/50 mM mother solution with DMSO, diluted 3 folds with DMSO, and diluted to 10 concentration points as a compound working solution.
(§2) 50 nL of the diluted compound working solution is transferred to each well of a reaction plate (784075, Greiner) with Echo 655, then 2.5 μL (4 ng/μL) of a p38α kinase solution is added; after 10 minutes at room temperature, 2.5 μL of a mixed solution of a kinase substrate (0.2 mg/mL) and ATP (150 μM) is added, for reaction for 60 min at room temperature; and 4 μL of an ADP Glo reagent is added, for incubation for 40 min at room temperature. 8 μL of a kinase detection reagent is added, for incubation for 40 min at room temperature; and finally a light-emitting signal is read on Envision 2104.

[4] = target: p38β (Homo sapiens, UniProt Q15759); test: p38β kinase screening experiment (ADP-Glo); type: biochemical
Chain of p38β (Q15759 whole entry): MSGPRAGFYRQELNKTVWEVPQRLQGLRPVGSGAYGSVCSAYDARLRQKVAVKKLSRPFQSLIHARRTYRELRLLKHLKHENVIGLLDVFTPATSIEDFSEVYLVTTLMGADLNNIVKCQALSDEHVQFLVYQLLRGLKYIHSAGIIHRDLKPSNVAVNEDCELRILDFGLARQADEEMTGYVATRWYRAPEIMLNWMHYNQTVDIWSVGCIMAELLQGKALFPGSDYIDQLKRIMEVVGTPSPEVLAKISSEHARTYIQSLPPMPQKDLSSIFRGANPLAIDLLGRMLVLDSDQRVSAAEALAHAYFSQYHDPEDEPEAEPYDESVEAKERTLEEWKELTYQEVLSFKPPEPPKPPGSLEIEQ
Protocol: as §1
as §2, with “(2” for “(4”, “p38β” for “p38α”, “(0.4” for “(0.2”, “(100” for “(150”

With Cc1cnc(-n2cccc(C(C)(C)O)c2=O)cc1-n1c(C)cc(OCc2ncc(F)cc2F)c(Cl)c1=O [Comparative example 1] the IC50 [1] was 1.63 nM, the solubility at 1 h ([2]; pH = 2.0, PBS buffer) was 427 µg/mL (≈ 807 µM) and the solubility at 1 h ([2]; pH = 7.4, PBS buffer) was 595 µg/mL (≈ 1130 µM). For the same compound, the IC50 ([3]; ATP 150 μM in the substrate/ATP mix, 60 min, read-out: IC50 value that the compound inhibits p38α) was 578 nM, the “Activity multiple relative to p38α/(p38α/MK2 complex)” value ([3]; ratio of p38α IC50 to p38α/MK2 complex IC50 of Embodiment 50) was 222 and the IC50 ([4]; ATP 100 μM in the substrate/ATP mix, 60 min, read-out: IC50 value that the compound inhibits p38β) was 4100 nM. The “Activity multiple relative to p38β/(p38α/MK2 complex)” value ([4]; ratio of p38β IC50 to p38α/MK2 complex IC50 of Embodiment 50) was 1575.
